From PubChem BioAssay (NCI)
Values joined by “and” are separate entries in the source; they are usually repeats but may differ in a detail not shown here. Equal entries are not always repeated.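 Five compound concentrations were applied to cells in 96-well plates for 48 hours; endpoints were derived by simple linear interpolation of the resulting dose-response curve. At the GI50, growth is halved. TGI: concentration producing complete growth inhibition.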

Tests used:
Experiment in all cases: inhibition of tumour cell growth, NCI panel, 48 h
[1] = tested on: MDA-MB-435
[2] = tested on: NCI-H460 lung
[3] = tested on: IGROV1 ovarian
[4] = tested on: OVCAR-4 ovarian
[5] = tested on: M14 melanoma
[6] = tested on: LOX IMVI melanoma
[7] = tested on: COLO 205 colon
[8] = tested on: ACHN renal
[9] = tested on: MOLT-4 leukemia
[10] = tested on: HCT-116 colon

| SMILES | GI50 [1] [µM] | TGI [1] | GI50 [2] | TGI [2] | GI50 [3] | TGI [3] | GI50 [4] [µM] | TGI [4] [µM] | GI50 [5] | TGI [5] [µM] | GI50 [6] [µM] | TGI [6] [µM] | GI50 [7] [µM] | TGI [7] [µM] | GI50 [8] [µM] | TGI [8] [µM] | GI50 [9] [µM] | TGI [9] [µM] | GI50 [10] | TGI [10] [µM] |
| --- | --- | --- | --- | --- | --- | --- | --- | --- | --- | --- | --- | --- | --- | --- | --- | --- | --- | --- | --- | --- |
| c1ccc(CNCCN(CCNCc2ccccn2)Cc2ccc3ccccc3c2)nc1 | 1.99 | 4.08 µM | 2.14 µM | 5 µM | 2.3 µM | 7.5 µM | 1.88 | 5.3 | 1.64 µM | 3.39 | 2 | 4.5 | 2.27 | 4.57 | 1.05 | 2.43 | 2.58 | 7.5 | 2.37 µM | 8.36 |
| O=[N+]([O-])c1cc([N+](=O)[O-])c(Nn2c3ccccc3c3ccccc32)c([N+](=O)[O-])c1 | 0.348 | 7.16 µM and 2.27 µM | 0.342 µM | 13 µM and 1.93 µM | 0.418 µM | 25.4 µM and 21.2 µM | 0.342 | > 100 | 0.381 µM | – | 0.339 | 11.7 | 0.195 | – | – | 8.49 | 0.11 | > 100 | 0.302 µM | 1.18 |
| COc1cc(C2c3cc4c(cc3C(OC(=O)C[n+]3ccccc3)C3COC(=O)C23)OCO4)cc(OC)c1OC (centres undefined) | < 0.01 | < 0.01 µM | < 0.0187 µM | > 100 µM | < 0.0207 µM | > 100 µM | < 0.0239 | > 100 | < 0.017 µM | > 100 | < 0.0179 | > 100 | < 0.0137 | < 0.0203 | < 0.0204 | > 100 | < 0.0197 | > 100 | < 0.0181 µM | > 100 |
| C#CCN(c1ccc(C(=O)N[C@@H](CCC(=O)N[C@H](CCC(=O)O)C(=O)O)C(=O)O)cc1)C1CCc2cc3nc(CO)[nH]c(=O)c3cc21 (some centres undefined) | > 74.5 | > 100 µM | 5.11 µM | > 100 µM | > 100 µM | > 100 µM | > 100 | > 100 | 7.97 µM | > 100 | 5.12 | > 100 | 13.8 | > 100 | 5.64 | > 100 | 31.6 | > 100 | 7.53 µM | > 100 |
| CC[C@@H](C)/C=C(C)/C=C/C(=O)c1c(O)c(-c2ccc(O)cc2)cn(O)c1=O | 0.468 | 17.5 µM | 0.292 µM | 1.11 µM | 0.421 µM | 11.4 µM | 0.261 | 12.5 | 0.284 µM | 13.2 | 0.288 | 7.64 | 7.19 | 20.6 | 0.33 | 9.55 | 0.31 | 15.7 | 0.395 µM | 13 |
| CC(C)COc1nc2c(c(=O)n(C)c(=O)n2C)n1C | > 100 | > 100 µM | > 100 µM | > 100 µM | 0.544 µM | > 100 µM | > 100 | > 100 | > 100 µM | > 100 | > 100 | > 100 | > 100 | > 100 | > 100 | > 100 | > 100 | > 100 | > 100 µM | > 100 |
| COc1cc(C(=O)c2cnc(-c3cccc4[nH]ccc34)[nH]2)cc(OC)c1OC | 0.0282 | – | 0.0434 µM and < 0.01 µM | > 100 µM | 0.0966 µM and < 0.01 µM | > 100 µM | < 0.01 | > 100 | 0.0505 µM and < 0.01 µM | – | – | > 100 | – | < 0.01 | – | 33.8 | – | > 100 | 0.0673 µM and < 0.01 µM | > 100 |
| NS(=O)(=O)c1cc(C(=O)O)c(O)c2ccccc12 | – | > 100 µM | – | > 100 µM | – | > 100 µM | – | > 100 | – | > 100 | – | > 100 | – | > 100 | – | > 100 | – | > 100 | – | > 100 |
| CCc1nc2ccc(N=Nc3c(O)ccc4ccccc34)cc2[nH]1 | – | 67.5 µM | – | 36.8 µM | – | 36.8 µM | – | 28.4 | – | 35.1 | – | 28.8 | – | 39 | – | 31.5 | – | 81.1 | – | 30.8 |
| CO[C@H]1CC(O[C@@H]2/C(C)=C/C[C@@H]3C[C@@H](C[C@]4(CC[C@H](C)[C@@H](C5CCCCC5)O4)O3)OC(=O)[C@@H]3C=C(C)/C(=N/O)[C@H]4OC/C(=C\C=C\[C@@H]2C)[C@]43O)O[C@@H](C)C1O (some centres undefined) | 1.05 | 2.41 µM | 0.793 µM | 1.51 µM | 1.07 µM | 2.69 µM | 1.02 | 2.65 | 1.5 µM | 4.62 | 0.651 | 1.28 | 0.93 | 1.8 | 0.994 | 2.01 | 1.12 | 2.53 | 0.704 µM | 1.4 |
| O=C(c1ccc(Cl)cc1)C(O)c1ccc(Cl)cc1 (centres undefined) | – | > 100 µM | – | > 100 µM | – | > 100 µM | – | > 100 | – | > 100 | – | > 100 | – | > 100 | – | > 100 | – | 75.6 | – | > 100 |
| Cc1cc(Nc2nc(N[C@@H](C)c3ncc(F)cn3)ncc2Cl)n[nH]1 | 28.1 | > 100 µM | 22.2 µM | > 100 µM | 26.1 µM | > 100 µM | 23.2 | > 100 | 20.7 µM | > 100 | 13.8 | > 100 | 17.8 | 48.9 | 20.4 | > 100 | 60.7 | > 100 | 13.3 µM | > 100 |
| O=C(O)C1[O][Sb][O]C(C(=O)O)C1O (centres undefined) | > 100 | > 100 µM | > 100 µM | > 100 µM | > 100 µM | > 100 µM | > 100 | > 100 | > 100 µM | > 100 | > 100 | > 100 | – | – | > 100 | > 100 | > 100 | > 100 | > 100 µM | > 100 |
